Laboratory results taken from ChEMBL document CHEMBL1944634, “Design, synthesis and biological evaluation of 6-substituted aminocarbonyl benzimidazole derivatives as nonpeptidic angiotensin II AT1 receptor antagonists” (Eur J Med Chem, 2012).
Where a chain is given by its changes, count along the chain named. ≈ marks a conversion by molar mass, not a printed value.

Legend:
[1] = target: T1, Type-1 angiotensin II receptor (Homo sapiens, UniProt P30556); assay: Displacement of [125I]Sar1 Ile8-Ang 2 from angiotensin 2 AT1 receptor after 180 mins by gamma counting
T1 sequence (P30556 whole entry): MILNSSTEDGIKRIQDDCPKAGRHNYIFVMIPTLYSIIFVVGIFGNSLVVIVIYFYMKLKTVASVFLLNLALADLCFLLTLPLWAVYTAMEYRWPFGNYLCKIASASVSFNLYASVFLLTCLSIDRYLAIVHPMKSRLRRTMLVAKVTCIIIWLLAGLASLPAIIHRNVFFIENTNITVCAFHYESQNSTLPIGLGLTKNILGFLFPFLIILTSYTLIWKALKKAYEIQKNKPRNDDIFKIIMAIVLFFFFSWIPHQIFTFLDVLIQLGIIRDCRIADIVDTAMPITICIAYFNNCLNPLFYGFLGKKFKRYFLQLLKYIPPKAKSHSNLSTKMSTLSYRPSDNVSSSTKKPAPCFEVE

[2] = target: T2, Type-2 angiotensin II receptor (Homo sapiens, UniProt P50052); assay: Displacement of [125I]Sar1 Ile8-Ang 2 from angiotensin 2 AT2 receptor after 180 mins by gamma counting
T2 sequence (P50052 whole entry): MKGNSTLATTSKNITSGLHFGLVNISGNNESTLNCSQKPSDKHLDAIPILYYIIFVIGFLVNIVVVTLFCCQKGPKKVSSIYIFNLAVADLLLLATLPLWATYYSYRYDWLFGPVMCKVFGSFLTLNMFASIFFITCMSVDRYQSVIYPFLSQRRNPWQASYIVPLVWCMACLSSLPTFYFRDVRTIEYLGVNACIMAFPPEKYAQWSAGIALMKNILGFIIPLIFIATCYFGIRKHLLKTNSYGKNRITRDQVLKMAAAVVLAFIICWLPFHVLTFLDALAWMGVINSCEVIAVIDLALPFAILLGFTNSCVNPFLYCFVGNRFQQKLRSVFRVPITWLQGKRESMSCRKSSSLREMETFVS

Rattus norvegicus = assay: Antihypertensive activity in spontaneously hypertensive rat assessed as decrease in blood pressure at 10 mg/kg, po by tail plethysmography; assay type: functional
[3] = Toxicity against Photobacterium phosphoreum T3 mutant assessed as inhibition of luminescence after 15 mins by microtox test; assay type: organism-based; conditions: Photobacterium phosphoreum T3 mutant (luminescent bacteria), read-out: LC50
[4] = target: T3, Type-1 angiotensin II receptor (Homo sapiens) (UniProt P30556); assay: Ratio of losartan IC50 to compound IC50 for angiotensin 2 AT1 receptor
T3 sequence (whole entry): T1 sequence (P30556 whole entry)

[5] = target: T4, Type-1 angiotensin II receptor (Oryctolagus cuniculus, UniProt P34976); assay: Antagonist activity at angiotensin 2 AT1 receptor in Japanese White rabbits thoracic aorta assessed as inhibition of angiotensin II-induced contraction after 60 mins; conditions: read-out: pA2 (converted)
T4 sequence (P34976 whole entry): T1 sequence (P30556 whole entry) with I2M, V49A, I254V, I270V, R272H, R311K, T349S, A353V

Compound | IC50 [1] [nM] | IC50 [2] [nM] | Activity (Rattus norvegicus) [mmHg] | EC50 (luminescence inhibition) at 0.25 h [3] [µg/mL] | Ratio IC50 [4] | Kb [5] [nM]
CCCc1nc2c(C)cc(C(=O)NCCc3cc(OC)ccc3OC)cc2n1Cc1ccc(-c2ccccc2C(=O)O)cc1 | 1.3 | 1400 | >30 | > 100 | 12 | 3.16
CCCc1nc2c(C)cc(C(=O)NCCc3ccc(F)cc3)cc2n1Cc1ccc(-c2ccccc2C(=O)O)cc1 | 198 | 1300 |  | 89 (≈ 162 µM) |  | 
CCCc1nc2c(C)cc(C(=O)NCc3ccccc3)cc2n1Cc1ccc(-c2ccccc2C(=O)O)cc1 | 52.5 |  |  | 78 (≈ 151 µM) |  | 
CCCc1nc2c(C)cc(C(=O)NCCc3ccc(OC)c(OC)c3)cc2n1Cc1ccc(-c2ccccc2C(=O)O)cc1 | 57.6 | 1200 |  | > 100 |  | 
CCCc1nc2c(C)cc(C(=O)NCCc3ccccc3F)cc2n1Cc1ccc(-c2ccccc2C(=O)O)cc1 | 106 |  |  | 65 (≈ 118 µM) |  | 
CCCc1nc2c(C)cc(C(=O)NCc3ccccc3OC)cc2n1Cc1ccc(-c2ccccc2C(=O)O)cc1 | 2.4 | 1100 |  | > 100 |  | 6.92
CCCc1nc2c(C)cc(C(=O)NCc3ccc(OC)cc3)cc2n1Cc1ccc(-c2ccccc2C(=O)O)cc1 | 4.3 | 3600 |  | > 100 |  | 4.79
CCCc1nc2c(C)cc(C(=O)NCc3cccc(OC)c3)cc2n1Cc1ccc(-c2ccccc2C(=O)O)cc1 | 326 | > 10000 |  | > 100 |  | 
CCCc1nc2c(C)cc(C(=O)NCCc3cccc(OC)c3)cc2n1Cc1ccc(-c2ccccc2C(=O)O)cc1 | 30.8 | > 10000 |  | 72 (≈ 128 µM) |  | 
CCCc1nc2c(C)cc(C(=O)NCc3ccc(OC)c(OC)c3)cc2n1Cc1ccc(-c2ccccc2C(=O)O)cc1 | 30.6 | > 10000 |  | > 100 |  | 
CCCc1nc2c(C)cc(C(=O)NCCc3ccc(OC)cc3)cc2n1Cc1ccc(-c2ccccc2C(=O)O)cc1 | 214 | 1500 |  | > 100 |  | 
